Activity calls are given as the source filed them.
Columns and labels:
[1] = A cytotoxicity screen of small molecule inhibitors of the PhoP region in Salmonella typhi identified in the primary screen. [Related pubchem assays: 1850, 1864, 1985 ]; format: functional
[2] = P. falciparum 3D7-ScDHODH growth inhibitors, dose response, SYBR Green, dry powder samples (AID 1159570); format: functional, cell-based;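 note: parasite growth measured after 72 hours of compound exposure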
[3] = P. falciparum ATP4 D1247Y mutant growth inhibitors, dose response, NITD609-resistant line, SYBR Green, dry powder (AID 1159571); format: functional, cell-based;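 note: parasites synchronized at ring stage by sorbitol before testing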
[4] = P. falciparum Dd2 growth inhibitors, dose response, SYBR Green, cherry-picked samples (AID 1159567); format: functional, cell-based
[5] = P. falciparum Dd2 growth inhibitors, dose response, SYBR Green, dry powder samples (AID 1159566); format: functional, cell-based;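 note: potency for growth inhibition with lower SYBR green DNA signal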
[6] = Vero E6 cell cytotoxicity, dose response, cytotoxicity control for non-replicating M. tuberculosis project, secondary assay (AID 492998); format: functional, VeroE6; details: Vero C1008
cells [7] = format: functional
[8] = inhibitors of clade B AD8 Env fusion, dose response, cell-based, cherry-pick (AID 652062); format: functional;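 note: luciferase signal from cell-cell fusion driven by HIV-1 clade B AD8 Env; potency is for inhibitors of fusion seen as a drop in luminescence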
[9] = ZM109 Env clade C HIV-1 fusion inhibitors, dose response, HeLa effector, CEM target cells, luciferase, cherry-pick (AID 652058); format: functional, cell-based
[10] = off-target signal loss in HeLa-CEM21 co-culture – HeLa F-luc CTL cells, cherry-picked, counter-screen for HIV-1 Env fusion inhibitor project, dose response (AID 652040); format: functional, cell-based;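 note: potency for signal decrease marking cytotoxic or nonspecific inhibition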
[11] = inhibitors of HIV Env-driven cell fusion, dose response, cherry-pick (AID 652057); format: functional, cell-based
[12] = CEM21 lymphoblast cell cytotoxicity, dose response, cytotoxicity control for viral fusion inhibitor project, CellTiter-Glo luminescence, cherry-picked (AID 652042); format: functional, cell-based;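 note: potency for signal decrease meaning cytotoxicity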
[13] = C. albicans growth with fluconazole, confirmation, fluorescence, retest (AID 2467); format: functional, cell-based
cells [14] = format: functional, cell-based
[15] = NIH-3T3 fibroblast cytotoxicity, dose response, cytotoxicity control, cell-based, fluorescence, Alamar Blue, secondary assay (AID 2327); format: functional;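 note: NIH-3T3 mouse fibroblasts cultured with fluconazole at 8 µg/mL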
[16] = molecular target: Dual specificity tyrosine-phosphorylation-regulated kinase 1A (Rattus norvegicus, UniProt Q63470); format: biochemical, Homo sapiens
[17] = molecular target: T1, Nuclear receptor subfamily 0 group B member 1 (Homo sapiens, UniProt P51843); format: functional, cell-based;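 note: HEK293T cells transfected with SF-1 and DAX-1 plus StAR promoter luciferase reporter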
T1 sequence (P51843 whole entry): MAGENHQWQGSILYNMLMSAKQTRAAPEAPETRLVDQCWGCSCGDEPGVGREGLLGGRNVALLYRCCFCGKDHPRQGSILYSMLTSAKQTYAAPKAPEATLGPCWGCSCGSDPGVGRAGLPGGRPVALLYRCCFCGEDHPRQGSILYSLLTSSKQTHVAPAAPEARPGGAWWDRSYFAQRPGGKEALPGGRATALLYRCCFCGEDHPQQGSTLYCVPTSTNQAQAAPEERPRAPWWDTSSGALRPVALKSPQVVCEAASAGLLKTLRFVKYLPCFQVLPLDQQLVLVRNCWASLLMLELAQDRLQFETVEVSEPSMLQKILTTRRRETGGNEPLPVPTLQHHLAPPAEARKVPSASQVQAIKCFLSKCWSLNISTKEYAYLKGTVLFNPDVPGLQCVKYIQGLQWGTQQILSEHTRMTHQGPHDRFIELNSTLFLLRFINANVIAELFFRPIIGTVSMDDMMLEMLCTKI

HEK293 [18] = assay: cells; details: Homo sapiens
HEK293 [19] = assay: cells; details: Homo sapiens; remark: listed apart in the source
[20] = cytotoxicity in HEK-293T cells, dose response, cytotoxicity control for TCR NF-kB inhibitor project, luminescence, T-cell screen hits (AID 489026); format: functional, cell-based;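 note: cells exposed to compound about 14 hours before the viability readout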
[21] = THP-1 cell cytotoxicity, dose response, cytotoxicity control for non-replicating M. tuberculosis project (AID 489025); format: functional
fMet-Leu-Phe receptor = molecular target: T2, fMet-Leu-Phe receptor (Homo sapiens, UniProt P21462); assay: FPR ligands, dose response (AID 519); format: functional
T2 sequence (P21462 whole entry): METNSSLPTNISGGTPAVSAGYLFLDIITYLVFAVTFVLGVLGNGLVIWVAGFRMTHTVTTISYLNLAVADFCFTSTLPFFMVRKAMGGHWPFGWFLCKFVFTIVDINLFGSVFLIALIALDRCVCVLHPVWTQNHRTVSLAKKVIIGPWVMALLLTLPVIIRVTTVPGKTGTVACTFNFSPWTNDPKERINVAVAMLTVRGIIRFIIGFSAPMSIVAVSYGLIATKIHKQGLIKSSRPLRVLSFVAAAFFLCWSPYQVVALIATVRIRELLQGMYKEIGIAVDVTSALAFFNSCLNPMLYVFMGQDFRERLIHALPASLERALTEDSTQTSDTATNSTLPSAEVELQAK

Cytochrome P450 1A2 = molecular target: T3, Cytochrome P450 1A2 (Homo sapiens, UniProt P05177);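 note: PubChem cytochrome P450 panel assay, CYP1A2 panel member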
T3 sequence (P05177 whole entry): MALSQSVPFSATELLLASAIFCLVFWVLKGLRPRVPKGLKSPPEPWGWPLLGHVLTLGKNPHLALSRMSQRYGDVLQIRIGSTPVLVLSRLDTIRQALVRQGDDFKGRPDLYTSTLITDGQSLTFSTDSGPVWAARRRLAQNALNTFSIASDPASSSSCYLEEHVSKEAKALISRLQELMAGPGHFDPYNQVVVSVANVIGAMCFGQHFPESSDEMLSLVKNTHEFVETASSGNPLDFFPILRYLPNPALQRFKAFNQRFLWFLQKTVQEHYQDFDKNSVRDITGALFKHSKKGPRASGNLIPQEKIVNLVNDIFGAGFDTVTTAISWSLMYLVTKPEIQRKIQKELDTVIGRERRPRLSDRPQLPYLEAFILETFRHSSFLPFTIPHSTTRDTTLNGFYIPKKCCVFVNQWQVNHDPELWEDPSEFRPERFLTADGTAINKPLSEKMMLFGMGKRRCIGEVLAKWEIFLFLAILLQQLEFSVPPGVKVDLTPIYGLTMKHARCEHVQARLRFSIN

[22] = molecular target: Peroxisome proliferator-activated receptor gamma/Nuclear receptor coactivator 2 (Homo sapiens, UniProt P37231); format: functional;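 note: agonist potency for raising coactivator recruitment to the receptor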
[23] = molecular target: Peroxisome proliferator-activated receptor gamma/Nuclear receptor coactivator 3 (Homo sapiens, UniProt P37231); format: functional;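 note: agonist potency for raising coactivator recruitment to the receptor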
[24] = molecular target: Peroxisome proliferator-activated receptor gamma/Nuclear receptor coactivator 1 (Homo sapiens, UniProt P37231); format: functional;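 note: agonist potency as compounds enhance coactivator SRC-1 recruitment to PPARgamma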
Caspase-6 = molecular target: T4, Caspase-6 (Homo sapiens, UniProt P55212); assay: human caspase-6 inhibitors, dose response, biochemical, VEID-R110 fluorescence, cherry-pick (AID 720632)
T4 sequence (P55212 whole entry): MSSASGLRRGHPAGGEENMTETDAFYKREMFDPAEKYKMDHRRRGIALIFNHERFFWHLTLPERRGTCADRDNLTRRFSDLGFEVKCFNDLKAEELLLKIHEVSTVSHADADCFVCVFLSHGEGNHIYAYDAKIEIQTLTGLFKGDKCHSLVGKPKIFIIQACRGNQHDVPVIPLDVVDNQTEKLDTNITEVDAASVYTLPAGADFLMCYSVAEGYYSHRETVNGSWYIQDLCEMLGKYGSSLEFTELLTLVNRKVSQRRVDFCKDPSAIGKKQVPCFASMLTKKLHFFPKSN

Chain of Peroxisome proliferator-activated receptor gamma/Nuclear receptor coactivator 2 (P37231 whole entry): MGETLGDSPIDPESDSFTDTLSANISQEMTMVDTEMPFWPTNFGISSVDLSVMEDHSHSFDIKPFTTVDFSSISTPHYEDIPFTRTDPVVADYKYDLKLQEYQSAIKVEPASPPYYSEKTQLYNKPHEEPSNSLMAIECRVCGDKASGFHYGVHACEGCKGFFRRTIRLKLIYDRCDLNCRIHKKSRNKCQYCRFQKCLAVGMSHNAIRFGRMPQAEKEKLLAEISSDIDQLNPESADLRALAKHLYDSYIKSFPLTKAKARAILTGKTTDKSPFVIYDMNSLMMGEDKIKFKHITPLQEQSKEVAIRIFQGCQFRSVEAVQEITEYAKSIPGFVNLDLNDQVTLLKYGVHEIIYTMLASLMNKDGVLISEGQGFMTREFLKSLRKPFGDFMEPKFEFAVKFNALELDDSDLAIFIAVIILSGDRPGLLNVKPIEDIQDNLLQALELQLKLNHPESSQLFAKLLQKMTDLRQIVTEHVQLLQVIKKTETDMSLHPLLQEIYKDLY
Chain of Peroxisome proliferator-activated receptor gamma/Nuclear receptor coactivator 2 (Q15596 whole entry, further chain): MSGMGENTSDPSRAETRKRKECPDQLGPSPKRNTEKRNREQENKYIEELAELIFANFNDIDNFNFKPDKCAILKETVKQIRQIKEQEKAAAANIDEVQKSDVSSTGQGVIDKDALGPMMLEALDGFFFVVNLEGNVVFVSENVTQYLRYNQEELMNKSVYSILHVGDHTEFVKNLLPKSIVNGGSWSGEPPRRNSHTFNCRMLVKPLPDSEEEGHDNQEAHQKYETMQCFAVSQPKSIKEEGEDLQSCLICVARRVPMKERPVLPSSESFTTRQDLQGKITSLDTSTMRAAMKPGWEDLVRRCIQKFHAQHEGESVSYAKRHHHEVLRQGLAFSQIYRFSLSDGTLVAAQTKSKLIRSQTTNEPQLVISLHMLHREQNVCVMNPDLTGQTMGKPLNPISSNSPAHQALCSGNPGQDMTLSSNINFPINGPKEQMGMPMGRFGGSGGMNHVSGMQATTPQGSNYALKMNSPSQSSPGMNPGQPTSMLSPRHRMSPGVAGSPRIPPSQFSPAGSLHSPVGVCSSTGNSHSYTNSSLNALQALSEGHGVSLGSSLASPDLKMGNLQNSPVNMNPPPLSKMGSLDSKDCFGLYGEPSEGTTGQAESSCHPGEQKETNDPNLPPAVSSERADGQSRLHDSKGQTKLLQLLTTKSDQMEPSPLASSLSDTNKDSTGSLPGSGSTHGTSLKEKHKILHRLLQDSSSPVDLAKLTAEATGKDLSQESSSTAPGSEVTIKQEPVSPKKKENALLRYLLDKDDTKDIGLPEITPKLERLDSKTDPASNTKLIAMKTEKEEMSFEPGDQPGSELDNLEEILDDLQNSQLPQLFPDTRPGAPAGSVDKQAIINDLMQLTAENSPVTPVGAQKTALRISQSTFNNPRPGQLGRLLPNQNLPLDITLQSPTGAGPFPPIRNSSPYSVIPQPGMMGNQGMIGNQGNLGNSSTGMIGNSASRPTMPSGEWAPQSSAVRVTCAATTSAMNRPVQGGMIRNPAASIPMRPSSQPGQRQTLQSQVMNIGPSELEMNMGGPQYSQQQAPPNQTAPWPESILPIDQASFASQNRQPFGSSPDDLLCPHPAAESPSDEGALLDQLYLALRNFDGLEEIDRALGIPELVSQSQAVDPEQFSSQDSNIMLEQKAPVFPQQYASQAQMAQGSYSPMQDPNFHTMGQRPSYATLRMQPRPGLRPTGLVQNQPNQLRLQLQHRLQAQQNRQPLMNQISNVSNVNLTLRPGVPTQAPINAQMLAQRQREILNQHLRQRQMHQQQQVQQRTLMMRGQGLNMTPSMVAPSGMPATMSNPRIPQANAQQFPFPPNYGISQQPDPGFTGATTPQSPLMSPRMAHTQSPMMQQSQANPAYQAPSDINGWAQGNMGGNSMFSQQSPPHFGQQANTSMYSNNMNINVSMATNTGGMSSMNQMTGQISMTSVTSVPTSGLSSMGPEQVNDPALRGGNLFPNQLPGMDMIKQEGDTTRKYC
Chain of Peroxisome proliferator-activated receptor gamma/Nuclear receptor coactivator 3 (P37231 whole entry): as the sequence (P37231 whole entry) above
Chain of Peroxisome proliferator-activated receptor gamma/Nuclear receptor coactivator 3 (Q9Y6Q9 whole entry, further chain): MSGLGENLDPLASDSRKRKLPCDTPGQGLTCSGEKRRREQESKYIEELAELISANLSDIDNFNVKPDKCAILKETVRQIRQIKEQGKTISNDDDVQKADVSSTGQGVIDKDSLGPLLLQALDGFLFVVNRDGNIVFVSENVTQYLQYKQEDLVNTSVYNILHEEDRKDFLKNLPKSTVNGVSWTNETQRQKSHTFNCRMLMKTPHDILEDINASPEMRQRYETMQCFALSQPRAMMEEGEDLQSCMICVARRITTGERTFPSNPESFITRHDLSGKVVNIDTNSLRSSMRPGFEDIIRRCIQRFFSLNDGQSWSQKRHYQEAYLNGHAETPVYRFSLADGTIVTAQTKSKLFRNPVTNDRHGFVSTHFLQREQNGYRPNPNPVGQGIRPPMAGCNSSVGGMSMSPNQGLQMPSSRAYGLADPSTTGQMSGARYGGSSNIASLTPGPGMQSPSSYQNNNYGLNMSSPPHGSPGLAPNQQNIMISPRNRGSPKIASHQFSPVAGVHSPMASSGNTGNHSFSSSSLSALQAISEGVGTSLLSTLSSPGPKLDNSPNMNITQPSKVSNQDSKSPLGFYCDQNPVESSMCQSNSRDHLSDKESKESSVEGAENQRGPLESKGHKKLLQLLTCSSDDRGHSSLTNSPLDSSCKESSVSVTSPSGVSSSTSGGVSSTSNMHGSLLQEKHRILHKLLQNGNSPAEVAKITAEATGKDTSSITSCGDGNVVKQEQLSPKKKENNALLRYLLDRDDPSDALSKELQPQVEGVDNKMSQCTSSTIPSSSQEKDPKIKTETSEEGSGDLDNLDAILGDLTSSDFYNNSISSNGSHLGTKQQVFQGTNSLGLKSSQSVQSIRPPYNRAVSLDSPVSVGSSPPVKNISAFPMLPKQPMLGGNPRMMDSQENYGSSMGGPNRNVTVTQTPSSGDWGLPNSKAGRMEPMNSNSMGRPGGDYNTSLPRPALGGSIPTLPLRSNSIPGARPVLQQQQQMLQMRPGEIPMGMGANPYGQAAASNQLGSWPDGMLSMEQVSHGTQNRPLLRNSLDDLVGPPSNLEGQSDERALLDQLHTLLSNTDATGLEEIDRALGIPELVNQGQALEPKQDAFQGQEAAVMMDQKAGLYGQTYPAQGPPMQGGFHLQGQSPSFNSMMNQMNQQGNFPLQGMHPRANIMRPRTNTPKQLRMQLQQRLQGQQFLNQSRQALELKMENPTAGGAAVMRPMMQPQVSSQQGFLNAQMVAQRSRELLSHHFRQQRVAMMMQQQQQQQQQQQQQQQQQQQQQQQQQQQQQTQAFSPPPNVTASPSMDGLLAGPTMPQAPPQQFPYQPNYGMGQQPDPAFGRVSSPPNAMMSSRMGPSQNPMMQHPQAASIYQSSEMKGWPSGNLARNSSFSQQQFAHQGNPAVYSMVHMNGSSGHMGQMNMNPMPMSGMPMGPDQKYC

## CC(=O)c1c(C)[nH]c(C(=O)OCC(=O)NCC(C)C)c1C
[1]
  EC50: > 50 µM (active)

## O=C(Nc1ccccc1F)N1CCCCN2[C@H](CO)[C@H](c3ccc(C#Cc4cccnc4)cc3)[C@@H]2C1
[2]
  AC50: 0.452 µM (active)
[3]
  AC50: 0.504 µM (active)
[4]
  AC50: 0.86 µM (active)
[5]
  AC50: 0.507 µM (active)

## CCOc1cc(-c2nnc(NC(=O)c3ccco3)o2)cc(OCC)c1OCC
[6]
  CC50: > 20 µM (active)
Cells [7]
  IC50: 5.12 µM (active)

## COc1ccc(S(=O)(=O)N2CCCCC2)cc1NC(=O)Cc1sc(C)nc1-c1ccc(F)cc1
[8]
  AC50: 6.25 µM (active)
[9]
  AC50: 2.59 µM (active)
[10]
  AC50: 2.18 µM (active)
[11]
  AC50: 0.863 µM (active)

## CCN(CC(O)c1cccc(O)c1)C(=O)C12CC3CC(CC(C3)C1)C2 (centres undefined)
[8]
  AC50: 3 µM (active)
[12]
  AC50: 46.4 µM (active)
[9]
  AC50: 0.415 µM (active)
[10]
  AC50: 0.619 µM (active)
[11]
  AC50: 0.33 µM (active)

## c1ccc2sc(NN=C3CCCCCC3)nc2c1
[13]
  EC50: > 38 µM (not active)
Cells [14]
  IC50: > 67.5 µM (inactive)
[15]
  EC50: > 150 µM (inactive)
[16]
  AC50: 3.89 µM (active)
[17]
  IC50: > 0.278 µM (active)

## COc1cccc(Nc2nc(C(N)CCc3ccccc3)cs2)n1 (centres undefined)
[8]
  AC50: 3.36 µM (active)
[12]
  AC50: 17.1 µM (active)
[9]
  AC50: 3.98 µM (active)
HEK293 [18]
  EC50: > 59.6 µM (inactive)
[10]
  AC50: 3.37 µM (active)
[11]
  AC50: 1.96 µM (active)
HEK293 [19]
  EC50: > 59.6 µM (inactive)

## Cc1ccc(/C=N/NC(=O)C2COc3ccccc3O2)s1 (centres undefined)
[6]
  CC50: 8.33 µM (active)
[20]
  IC50: > 80 µM (inactive)
Cells [7]
  IC50: 7.88 µM (active)
[21]
  CC50: 4.18 µM (active)

## COc1cccc(OC)c1/C(O)=C(\C#N)c1nc2ccccc2[nH]1
fMet-Leu-Phe receptor
  Ki: > 66.7 µM (inactive)
Cytochrome P450 1A2
  AC50: 12.6 µM (inconclusive)

## CC[N+](C)(CC)CCC[n+]1c(-c2ccccc2)c2cc(N)ccc2c2ccc(N)cc21 [PROPIDIUM]
[1]
  EC50: > 50 µM (active)

## CCCCNC(=O)CSc1nc2ccccc2c(=O)n1Cc1ccc2c(c1)OCO2
[22]
  EC50: > 79.4 µM (not active)
[23]
  EC50: > 79.4 µM (not active)
[24]
  EC50: > 79.4 µM (not active)

## O=C(O)C1Oc2cc3ccccc3cc2O1
Caspase-6
  AC50: 8.44 µM (active)
